Test results taken from ChEMBL document CHEMBL4261607 (Eur J Med Chem, 2018).

Assays:
[1] = Cytotoxicity in yeast assessed as reduction in cell proliferation; format: organism-based; conditions: saccharomyces cerevisiae, yeast cells
[2] = Cytotoxicity against MDCK cells assessed as reduction in cell viability after 24 hrs by MTT assay; format: cell-based, Canis lupus familiaris; conditions: dog
[3] = molecular target: Matrix protein 2 (Influenza A virus (A/Udorn/307/1972(H3N2)), UniProt P0DOF8)
Sequence of Matrix protein 2 (Influenza A virus (A/Udorn/307/1972(H3N2)), UniProt P0DOF8) (P0DOF8 whole entry): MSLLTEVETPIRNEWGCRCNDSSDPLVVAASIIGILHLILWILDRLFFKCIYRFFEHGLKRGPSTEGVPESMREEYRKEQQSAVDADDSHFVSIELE

Influenza A virus = experiment: Antiviral activity against Influenza A virus H5N1 infected in MDCK cells after 2 to 3 days by crystal violet staining-based plaque reduction assay; format: functional, organism-based

SMILES	CC50 [1]	CC50 at 24 h [2]	EC50 [3]	EC50 (Influenza A virus)
N#CCCN(Cc1ccco1)S(=O)(=O)c1ccc(C#N)cc1	> 212 µM	> 212 µM		
CCOC(=O)CCN(Cc1cccs1)S(=O)(=O)c1ccc(Br)cc1	> 155 µM	> 154 µM		
NC12CC3CC(CC(C3)C1)C2 [AMANTADINE]	> 443 µM	> 441 µM		
O=C(O)CCN(Cc1cccs1)S(=O)(=O)c1ccc(Br)cc1	> 166 µM	> 165 µM		
Cc1cccc(S(=O)(=O)N(CCC#N)Cc2ccco2)c1	> 220 µM	> 219 µM		
N#CCCN(Cc1cccs1)S(=O)(=O)c1ccc(N)cc1	> 179 µM	> 208 µM		
N#CCCN(Cc1cccs1)S(=O)(=O)c1ccc([N+](=O)[O-])cc1	> 191 µM	> 190 µM		
N#CCCN(Cc1cccs1)S(=O)(=O)c1ccc(F)cc1	> 206 µM	> 206 µM		
CC(=O)c1ccc(S(=O)(=O)N(CCC#N)Cc2cccs2)cc1	> 192 µM	> 191 µM		
N#CCCN(Cc1ccccc1)S(=O)(=O)c1ccc(F)cc1	> 210 µM	> 210 µM		
N#CCCN(Cc1ccco1)S(=O)(=O)c1ccc(Cl)cc1	> 206 µM	> 205 µM		
CCCN(Cc1cccs1)S(=O)(=O)c1ccc(Br)cc1	> 179 µM	> 178 µM		
N#CCCN(Cc1cccs1)S(=O)(=O)c1ccc(Br)cc1	> 174 µM	> 173 µM		
COc1ccc(S(=O)(=O)N(CCC#N)Cc2ccco2)cc1	> 209 µM	> 208 µM		
N#CCCN(Cc1ccco1)S(=O)(=O)c1ccc(Br)cc1	> 182 µM	> 181 µM		
N#CCCN(Cc1cccs1)S(=O)(=O)c1ccccc1F	> 206 µM	> 206 µM		
N#CCCN(Cc1ccco1)S(=O)(=O)c1ccc(C(F)(F)F)cc1	> 187 µM	> 186 µM		
N#CCCN(Cc1ccco1)S(=O)(=O)c1ccc(F)cc1	216 to 217 µM	216 to 227 µM		
Cc1ccc(S(=O)(=O)N(CCC#N)Cc2ccco2)cc1	> 220 µM	> 219 µM		
N#CCCN(Cc1ccc[nH]1)S(=O)(=O)c1ccc(Br)cc1	> 182 µM	> 181 µM		
Cc1ccc(S(=O)(=O)N(CCC#N)Cc2cccs2)cc1	> 209 µM	127 µM		
N#CCCN(Cc1cccs1)S(=O)(=O)c1ccc(C(F)(F)F)cc1	> 179 µM	> 178 µM		
CCOC(=O)C1=C[C@@H](OC(CC)CC)[C@H](NC(C)=O)[C@@H](N)C1 [OSELTAMIVIR]	> 214 µM		Not Active	
COc1ccc(S(=O)(=O)N(CCC#N)Cc2cccs2)cc1	> 199 µM	> 198 µM		
O=S(=O)(c1ccc(Br)cc1)N(Cc1cccs1)Cc1cccs1	> 156 µM	81 µM		
N#CCCN(Cc1cccs1)S(=O)(=O)c1ccc(Cl)cc1	> 197 µM	> 196 µM		
CCCN(CCC#N)S(=O)(=O)c1ccc(Br)cc1	> 202 µM	116 µM		
N#CCCN(Cc1cccs1)S(=O)(=O)c1ccc(C#N)cc1	> 202 µM	> 201 µM		
N#CCCN(Cc1cccs1)S(=O)(=O)c1cccc(F)c1	> 206 µM	> 206 µM		
Cc1cc(C(=O)NCCSCc2ccc([N+](=O)[O-])cc2)c(C)o1				1.25 µM
